Measured values from article PMC11085682, “Identification of Novel Peptides in Distillers’ Grains as Antioxidants, α-Glucosidase Inhibitors, and Insulin Sensitizers: In Silico and In Vitro Evaluation” (Nutrients, 2024).
Read-outs that look alike come from different tables or passages of the source. Where a SMILES comes first, the peptide text is derived from it. Where no end group is shown, it is not given here.

Legend:
[1] = tested on: HepG2 cells; experiment: MTT cytotoxicity of samples and insulin in HepG2 cells
Source text: (§1) The MTT method was adopted to assess the impact of samples and insulin on cell viability, helping determine the optimal concentrations of insulin and the samples. The experimental protocol for improving insulin resistance followed previous methods. Details are provided in the Supplementary Materials. In this experiment, various groups were established, incorporating the blank control group (K), model group (M), peptide sample groups, and the positive control group (treated with rosiglitazone).
(§2) […] of the main pathogenic mechanisms of type 2 diabetes mellitus, and the liver is an important site for insulin to function. […] As the cellular insulin resistance condition arises, the utilization of glucose by the cells decreases, and the consumption of glucose decreases. Therefore, insulin resistance is usually expressed by the consumption of glucose in studies. Using the MTT method, this study explored the effect of different concentrations of insulin on cellular glucose consumption after 24 h of action with HepG2 cells.

[2] = molecular target: α-glucosidase (Saccharomyces cerevisiae, UniProt P53341); experiment: α-glucosidase inhibitory effect (pNPG); assay type: biochemical; conditions: synthetic peptides; PBS pH 6.8, 37 °C, 15 min pre-incubation, 30 min with pNPG, absorbance 405 nm; median (25%, 75% quartiles), at least three experiments; read-out: IC50, α-glucosidase inhibition
Protocol: Distillers’ grains were generously supplied by the Suzhou Bridge Wine & Spirits Co. (Suzhou, China). Peptides YPLPR, AFEPLR, and NDPF (purity ≥ 98%) were composed by All Peptide Biotechnology Co., Ltd. (Hangzhou, China). Dulbecco’s Modified Eagle Medium (DMEM) medium, embracing 10.0% fetal bovine serum (FBS) and 1.0 mol/L phosphate buffer (PBS) was bought from Gibco (Life Technologies, Inc., Carlsbad, CA, USA). Alkaline protease (2.4 U/g), penicillin-streptomycin (100.0 U/mL penicillin-100.0 […] streptomycin), 3-(4,5-dimethylthiazol-2)-2,5-diphenyltetrazolium bromide (MTT) powder, 2′,7′-dichlorofluorescence yellow diacetate (DCFH-DA), and trypsin solution were purchased from Solarbio (Beijing Solarbio Science and Technology Co., Ltd., Beijing, China). The HepG2 cell line was acquired from the Kunming Institute of Animal Science, Chinese Academy of Sciences (Kunming, China). Rosiglitazone, insulin, ABTS, DPPH, α-glucosidase derived from Saccharomyces cerevisiae (type I, protein content of at least 30.0 units per milligram), and p-nitrobenzene α-D-glucopyranoside (pNPG, with a minimum purity of 99.0%) were purchased from Sigma-Aldrich (located in Shanghai, China). The glucose kit was purchased from Nanjing Jiancheng Co. (Nanjinng, China). […]
The inhibitory effect on α-glucosidase activity of the protein hydrolysates from distillers’ grains or three selected peptides was assessed following the methodology outlined by Zhang et al. (2018) with slight modifications, and the concrete method is shown in the Supplementary Materials. […]
The inhibitory effect on α-glucosidase activity of the protein hydrolysates from distillersʹ grains or three selected peptides was assessed following the methodology outlined by Zhang et al. (2018) with slight modifications. […]
The absorbance of the resulting reaction mixture was measured at a wavelength […]
of 405 nm using an enzyme-labeled instrument. […] In this formula, ʺAʺ represents the absorbance value. […]
The antioxidant properties of vinasse hydrolysates or three screening peptides were evaluated by DPPH and ABTS free radical scavenging […]

[3] = tested on: HepG2 cells; experiment: H2O2 effect on cell viability (cell damage model); assay type: cell-based, human; conditions: H2O2 1.2 mmol/L; median (25%, 75% quartiles), n = 4
Source text: Excessive ROS may attack normal cells or biological macromolecules and undergo oxidative stress, causing severe damage to cellular structures, which causes many diabetic complications and chronic diseases. Accordingly, in this study, the scavenging activities of ABTS and DPPH radicals of bioactive peptides were not only investigated by in vitro experiments, but their antioxidant activity was also further investigated at the cellular level. The cell damage rate of the H2O2-induced cell damage model was generally around 50%. […] When the concentration of H2O2 was 1.2 mmol/L, the cell viability rate was 56.38 (50.33, 68.00) %, so the concentration of H2O2 of 1.2 mmol/L established the cell damage model in this study. […] Consistent with 3.6, YPLPR, AFEPLR, and NDPF were used at 1.0 mmol/L for subsequent experiments.

[4] = tested on: HepG2 cells; experiment: H2O2-induced intracellular ROS scavenging in HepG2 cells (DCFH-DA, flow cytometry); assay type: cell-based, human; conditions: VC 10.0 µmol/L 24 h, then 1.2 mmol/L H2O2 seven hours, median (25%, 75% quartiles), n = 4, model M 139.46 %, blank K 101 %
Protocol: According to Liu et al. (2020), the H2O2-induced scavenging activity of reactive oxygen species was evaluated. In this experiment, various groups were established, including the blank, sample, positive control, and model groups. Refer to the Supplementary Materials for specific information. […]
and NDPF concentrations were 1.0 mmol/L, and the positive control rosiglitazone concentration was 20.0 µmol/L. At the end of the incubation, the glucose content in the culture medium was measured using the glucose oxidase-peroxidase method kit by Nanjing Jiancheng Biological Co., Ltd., and the glucose content was calibrated by measuring the cell activity using the MTT […]
7. Evaluation of scavenging capacity against intracellular ROS
HepG2 cells (2.0 mL/well, 1×10^4 cells/well) were inoculated in 6-well plate and cultured overnight. VC (10.0 µmol/L) or peptides YPLPR, AFEPLR, and NDPF (1.0 mmol/L) were added to each well, and the cells were incubated for an additional 24 hours. Following the incubation, the culture medium was aspirated, and the cells were washed thoroughly with PBS twice. Subsequently, cells in all experimental groups, except for the control group, were exposed to 1.2 mmol/L H2O2 for seven hours. […] After incubation, the cells were rinsed twice with culture medium devoid of FBS and analyzed using a Millipore flow cytometer (Guava easy Cyte 6-2L, Billerica, MA) within 30 minutes.

[5] = tested on: HepG2 cells; experiment: Glucose consumption of insulin-resistant HepG2 cells; assay type: cell-based, human; conditions: 20.0 µmol/L positive control, 24 h, after 25.0 µmol/L insulin 24 h; median (25%, 75% quartiles), n = 6; model group M 6.08 (5.80, 6.81) mmol/L
Source text: as §1, §2

[6] = tested on: α-glucosidase; conditions: cited from earlier work; for α-glucosidase activity inhibition: peptides from Spanish dry-cured ham
Source text: Since these peptides have small molecular weights, they are more likely to be absorbed intact by the gastrointestinal tract after oral ingestion, thereby exerting systemic or local effects. Consequently, the study of bioactive peptides has progressively emerged as a prominent research area in recent years. Numerous studies have dem ... || α-glucosidase is a membrane-associated enzyme. Inhibition of α-glucosidase activity can reduce carbohydrate hydrolysis, thus reducing sugar absorption and effectively controlling diabetes.. […] In the study on rice wine peptides, the α-glucosidase inhi ... || Due to the fact that α-glucosidase is a more important and directly regulated target in the treatment of diabetes, the potential inhibitory activity of α-glucosidase was used as the main condition of inquiry for further analysis. […] Therefore, this peptide was selected as a positive control to facilitate the analysis of the current study, and its affinity grading after molecular docking with α-glucosidase was −9.1 kcal/mol. Four peptides, YPLPR, AFEPLR, NDPF, and WN ... || (+ 1 further places)

[7] = set-up: method as in doi:10.1016/j.jff.2016.08.021; conditions: at different concentrations (5–150 mg/mL); cited from earlier work
[8] = previously screened from rice wine peptides; no reference number printed in the sentence; read-out: IC50, DPPH radical scavenging capacity; cited from earlier work
[9] = previously screened from rice wine peptides; no reference number printed in the sentence; read-out: IC50, ABTS radical scavenging capacity; cited from earlier work
[10] = tested on: HepG2 cells; conditions: cited from earlier work; for Glucose consumption in HepG2 cells compared to the model group: walnut-derived peptides; for Insulin resistance in HepG2 cells exposed to high glucose: from goat milk casein hydrolysate
Source text: In this study, the effect of YPLPR, AFEPLR, and NDPF on the glucose consumption of HepG2 cells in an insulin resistance state was investigated. […] The glucose consumption of peptides YPLPR, AFEPLR, and NDPF were 9.56 (9.37, 9.83), 10.56 ...

[11] = tested on: HepG2 cells; experiment: Effect of insulin concentration on glucose consumption of HepG2 cells; assay type: cell-based, human; conditions: insulin 25.0 µmol/L, 24 h
Source text: Details are provided in the Supplementary Materials.

[12] = at 1.0 mmol/mL (so in the source)
[13] = peptides from malt, read-out: IC50, α-glucosidase inhibitory activity
[14] = peptides from rice wine, read-out: IC50, α-glucosidase depressant activity

α-glucosidase (Saccharomyces cerevisiae, UniProt P53341), sequence (P53341 whole entry): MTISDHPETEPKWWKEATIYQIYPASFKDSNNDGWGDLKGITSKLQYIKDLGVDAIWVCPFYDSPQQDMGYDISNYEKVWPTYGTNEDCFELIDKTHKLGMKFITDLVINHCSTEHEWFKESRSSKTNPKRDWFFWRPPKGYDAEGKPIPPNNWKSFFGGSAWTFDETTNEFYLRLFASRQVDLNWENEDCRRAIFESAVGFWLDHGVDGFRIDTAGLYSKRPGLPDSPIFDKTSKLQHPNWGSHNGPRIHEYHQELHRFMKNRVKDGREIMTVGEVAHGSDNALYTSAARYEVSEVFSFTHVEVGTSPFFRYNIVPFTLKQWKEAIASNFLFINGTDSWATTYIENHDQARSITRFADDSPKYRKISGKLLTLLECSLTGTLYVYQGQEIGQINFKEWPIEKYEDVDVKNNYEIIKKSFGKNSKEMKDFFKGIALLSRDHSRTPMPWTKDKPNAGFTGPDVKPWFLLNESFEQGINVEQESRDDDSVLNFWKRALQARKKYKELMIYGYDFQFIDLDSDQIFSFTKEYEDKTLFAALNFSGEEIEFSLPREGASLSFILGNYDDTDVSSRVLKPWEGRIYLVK

NC(=O)C[C@H](N)C(=O)N[C@@H](CC(=O)O)C(=O)N1CCC[C@H]1C(=O)N[C@@H](Cc1ccccc1)C(=O)O [NDPF] (H-NDPF-OH)
Cytotoxicity (MTT) [1, 12]: no cytotoxicity | IC50 [2]: 6.24 mM

OO [Peptide H2O2]
Cell viability rate [3]: 56.38 (50.33, 68.00) %

O=C1O[C@H]([C@@H](O)CO)C(O)=C1O [VC]
Relative intracellular ROS content [4]: 92.03 (90.83, 98.11) %

CN(CCOc1ccc(CC2SC(=O)NC2=O)cc1)c1ccccn1 (stereo not drawn) [rosiglitazone]
Glucose consumption [5]: 9.09 (8.29, 9.23) mmol/L

AEEEYPDL [peptide from Spanish dry-cured ham]
α-glucosidase activity inhibition [6]: effectively inhibited α-glucosidase activity

AFEPLR [AFEPLR]
Cytotoxicity (MTT) [1, 12]: no cytotoxicity | IC50 [2]: 8.69 mM

AGGFR [peptide from malt]
IC50 [6, 13]: 8.66 ± 0.33 mM

AVPYPQ [peptide identified in the research of Pepe et al. (2016)]
antioxidant activity [7]: showed antioxidant activity

EAMAPK [peptide identified in the research of Pepe et al. (2016)]
antioxidant activity [7]: showed antioxidant activity

FTYPR [peptide previously screened from rice wine peptides by molecular simulation]
IC50 [8]: 6.09 mM | IC50 [9]: 2.64 mM | IC50 [6, 14]: 3.57 mM

LDLQR [peptide from malt]
IC50 [6, 13]: 8.59 ± 0.25 mM

LDNFR [peptide from malt]
IC50 [6, 13]: 9.21 ± 0.22 mM

LGVGG [peptide from Spanish dry-cured ham]
α-glucosidase activity inhibition [6]: effectively inhibited α-glucosidase activity

LRYL [walnut-derived peptide]
Glucose consumption in HepG2 cells compared to the model group [10]: increased glucose consumption

LVRL [walnut-derived peptide]
Glucose consumption in HepG2 cells compared to the model group [10]: increased glucose consumption

NPWDQVKR [peptide extracted from goat milk casein hydrolysate]
Insulin resistance in HepG2 cells exposed to high glucose [10]: improvement in insulin resistance

QEPVLGPVRGPFP [peptide extracted from goat milk casein hydrolysate]
Insulin resistance in HepG2 cells exposed to high glucose [10]: improvement in insulin resistance

QFTPR [peptide from previous studies on rice wine]
IC50 [6, 14]: 9.18 mM

SDIPNPIGSE [peptide extracted from goat milk casein hydrolysate]
Insulin resistance in HepG2 cells exposed to high glucose [10]: improvement in insulin resistance

SSLFR [peptide from previous studies on rice wine]
IC50 [6, 14]: 7.73 mM

VLLALVLLR [walnut-derived peptide]
Glucose consumption in HepG2 cells compared to the model group [10]: increased glucose consumption

WLRL [WLRL peptide from soybean protein, positive control]
inhibitory effect toward α-glucosidase ([6]; peptide from soybean protein): good inhibitory effect toward α-glucosidase

YPLPR [YPLPR]
Cytotoxicity (MTT) [1, 12]: no cytotoxicity | IC50 [2]: 5.31 mM

insulin: used to establish the insulin resistance model
Cytotoxicity (MTT) ([1]; insulin 25.0 µmol/L): not cytotoxic | Cellular glucose consumption compared with the group without insulin [11]: significantly reduced
